# Assay results from US11779618B2, “Treatment of topical and systemic bacterial infections” (priority 2014, dated 2023).
# Tested on: S. aureus 8588
# Test: Effectiveness against S. aureus 8588 (absorbance, Mueller-Hinton broth)
# Format: cell-based
# Conditions: 0.01 mg/ml ampicillin (below MIC)
# Text: The absorbance readings of treatments above the MIC were similar to the negative control of Mueller-Hinton broth alone indicating no bacterial growth.
# The absorbance readings of the phage K treated wells were similar to the negative control Mueller-Hinton broth alone.
compound,measurement,value
CC1(C)S[C@@H]2[C@H](NC(=O)[C@H](N)c3ccccc3)C(=O)N2[C@H]1C(=O)O [ampicillin],effect on bacterial growth,has some effect on bacterial growth but is not totally effective
